Experimental data published in ChEMBL document CHEMBL6178013, “Ferroptosis of Cancer Cells via Tubulin Degradation and Mitochondrial Dysfunction: A Novel Mechanism of Anticancer Effect for Small-Molecule Anion Transporters” (J Med Chem, 2025).
Calls of active or inactive are those of the source. No cut-off for these calls is given here.

Columns and labels:
[1] = test system: HepG2; experiment: Cytotoxicity against human HepG2 cells incubated for 48 hrs by MTT assay; format: functional, cell-based; settings: HepG2, 48 h
[2] = test system: HeLa; experiment: Antitumor activity against human HeLa cells xenografted in male Balb/C nude mouse assessed as average tumor size at 2 mg/kg, ip administered on every 2 days measured after 18 days (reference value: 1995.1 mm3); format: functional; settings: time 18 day
[3] = test system: HeLa; experiment: Cytotoxicity against human HeLa cells incubated for 48 hrs by MTT assay; format: functional, cell-based
[4] = test system: MCF7; experiment: Cytotoxicity against human MCF7 cells incubated for 48 hrs by MTT assay; format: functional, cell-based; settings: MCF7, 48 h
[5] = Toxicity in male Balb/C nude mouse xenografted with human HeLa cells assessed as body weight change at […], ip administered on every 2 days measured after 18 days; format: organism-based; settings: in vivo, 432 h, time 18 day
[6] = test system: Chloride; experiment: Binding affinity to chloride anions in human HeLa cells assessed as increase in green fluorescence in cytoplasm at 5 uM incubated for 6 hrs by AO staining based analysis; format: cell-based
[7] = test system: Chloride; experiment: Binding affinity to chloride anions using tetrabutylammonium chloride salt assessed as association constant by 1H NMR spectroscopy
[8] = target: Chloride; experiment: Binding affinity to chloride anions assessed as anionophoric activity in egg-yolk L-alpha-phosphatidylcholine liposome model measured per lipid by pyranine-based fluorescent assay
[9] = test system: Chloride; experiment: Binding affinity to chloride anions assessed as fold increase in anionophoric activity in egg-yolk L-alpha-phosphatidylcholine liposome model measured per lipid by pyranine-based fluorescent assay relative to m-Bimbe
[10] = target: Chloride; experiment: Binding affinity to chloride anions assessed as chloride efflux in egg-yolk L-alpha-phosphatidylcholine liposome model measured per lipid in presence of intravesicular NaCl/extravesicular NaNO3 by chloride ion selective electrode technique
[11] = test system: Liposome; experiment: Disruption of egg-yolk L-alpha-phosphatidylcholine liposome model membrane assessed as calcein leakage by fluorescence based assay; format: subcellular
[12] = test system: A549; experiment: Cytotoxicity against human A549 cells incubated for 48 hrs by MTT assay; format: functional, cell-based; settings: A549, 48 h
[13] = test system: Chloride; experiment: Binding affinity to chloride anions in human HeLa cells assessed as decrease in orange fluorescence in cytoplasm at 5 uM incubated for 6 hrs by AO staining based analysis relative to control; format: cell-based; parameters: scale not given: the % may be the effect or the level left
[14] = test system: Chloride; experiment: Binding affinity to chloride anions assessed as transport of chloride anions across bulky nitrobenzene membrane in U-shaped tube harboring NaCl in donor phase and NaNO3 in receiving phase at 1 mM measured for 12 hrs by chloride ion selective electrode technique
[15] = test system: Chloride; experiment: Binding affinity to chloride anions in human HeLa cells assessed as chloride influx up to 5 uM incubated for 2 hrs by MQAE staining based analysis; format: cell-based
[16] = test system: Chloride; experiment: Binding affinity to chloride anions in human HeLa cells assessed as decrease in red fluorescence in cytoplasm at 5 uM incubated for 1.5 hrs by MR-(RR)2 staining based analysis; format: cell-based

Compound	Ka [7]	EC50 [8]	fold change (FC) [9]	EC50 [10]	Activity [11]	Activity [14]	IC50 [1]	Activity [2]	IC50 [3]	IC50 [4]	Activity [5]	Activity [6]	IC50 [12]	Activity [13]	Activity [15]	Activity [16]
COc1cccc2c1C(=O)c1c(O)c3c(c(O)c1C2=O)C[C@@](O)(C(=O)CO)C[C@@H]3O[C@H]1C[C@H](N)[C@H](O)[C@H](C)O1 [DOXORUBICIN]	–	–	–	–	–	–	2.3 µM	1093.2 mm3	0.11 µM	0.26 µM	Toxic	–	–	–	–	–
FC(F)(F)c1cc(C(F)(F)F)c2nc(-c3cccc(-c4nc5c(C(F)(F)F)cc(C(F)(F)F)cc5[nH]4)c3)[nH]c2c1	2.93 10^4/M	0.27 mol%	35.8	1.92 mol%	inactive	Active	8.3 µM	–	2.84 µM	2.4 µM	–	Active; The Result Indicates That Compound Basify Acidic Organelles	1.49 µM	Active; The Result Indicates That Compound Basify Acidic Organelles	Active	Active; The Result Reveals That Compound Can Alkalize Lysosomes
c1cc(-c2nc3ccccc3[nH]2)cc(-c2nc3ccccc3[nH]2)c1	1.45 10^4/M	2.76 10^-3mol%	3.5 10^3No_unit	0.06 mol%	–	–	–	–	–	–	–	–	–	–	–	–
O=[N+]([O-])c1cc(-c2nc3c(C(F)(F)F)cc(C(F)(F)F)cc3[nH]2)cc(-c2nc3c(C(F)(F)F)cc(C(F)(F)F)cc3[nH]2)c1	6.58 10^3/M	5.34 10^-3mol%	1.81 10^3No_unit	0.02 mol%	inactive	Active	16.5 µM	–	9.67 µM	10.8 µM	–	Active; The Result Indicates That Compound Basify Acidic Organelles	10.5 µM	100%	Active	Active; The Result Reveals That Compound Can Alkalize Lysosomes
O=[N+]([O-])c1cc(-c2nc3ccc(C(F)(F)F)cc3[nH]2)cc(-c2nc3ccc(C(F)(F)F)cc3[nH]2)c1	5.25 10^3/M	2 10^-3mol%	4.84 10^3No_unit	0.3 mol%	inactive	Active	6.8 µM	–	8.33 µM	8.6 µM	–	Active; The Result Indicates That Compound Basify Acidic Organelles	7.78 µM	Active; The Result Indicates That Compound Basify Acidic Organelles	Active	Active; The Result Reveals That Compound Can Alkalize Lysosomes

Second part, led by results:

Ka [7]	EC50 [8]	fold change (FC) [9]	EC50 [10]	Activity [11]	Activity [14]	Compound	IC50 [1]	Activity [2]	IC50 [3]	IC50 [4]	Activity [5]	Activity [6]	IC50 [12]	Activity [13]	Activity [15]	Activity [16]
6.96 10^3/M	0.64 mol%	15.1	4.11 mol%	inactive	Active	Fc1cc2nc(-c3cccc(-c4nc5cc(F)c(C(F)(F)F)cc5[nH]4)c3)[nH]c2cc1C(F)(F)F	11.2 µM	–	18.3 µM	11.2 µM	–	Active; The Result Indicates That Compound Basify Acidic Organelles	28.8 µM	Active; The Result Indicates That Compound Basify Acidic Organelles	–	–
4.95 10^3/M	2.37 10^-2mol%	4.08 10^2No_unit	0.11 mol%	inactive	Active	O=[N+]([O-])c1cc(-c2nc3cc(F)c(C(F)(F)F)cc3[nH]2)cc(-c2nc3cc(F)c(C(F)(F)F)cc3[nH]2)c1	2.2 µM	–	4.23 µM	3.4 µM	–	Active; The Result Indicates That Compound Basify Acidic Organelles	10.2 µM	100%	Active	Active; The Result Reveals That Compound Can Alkalize Lysosomes
1.17 10^4/M	1.54 10^-2mol%	6.28 10^2No_unit	0.94 mol%	inactive	Active	Fc1cc(-c2nc3ccc(C(F)(F)F)cc3[nH]2)cc(-c2nc3ccc(C(F)(F)F)cc3[nH]2)c1	1.67 µM	–	3.53 µM	3.17 µM	–	Active; The Result Indicates That Compound Basify Acidic Organelles	4.53 µM	Active; The Result Indicates That Compound Basify Acidic Organelles	–	–
1.01 10^3/M	3.79 10^-2mol%	2.55 10^2No_unit	0.2 mol%	inactive	Active	Fc1cc(-c2nc3cc(F)c(C(F)(F)F)cc3[nH]2)cc(-c2nc3cc(F)c(C(F)(F)F)cc3[nH]2)c1	3.13 µM	–	3.9 µM	3.33 µM	–	Active; The Result Indicates That Compound Basify Acidic Organelles	3.97 µM	Active; The Result Indicates That Compound Basify Acidic Organelles	–	–
3.51 10^3/M	9.67 mol%	–	> 10 mol%	inactive	Active	FC(F)(F)c1ccc2nc(-c3cccc(-c4nc5ccc(C(F)(F)F)cc5[nH]4)c3)[nH]c2c1	10.6 µM	–	12.3 µM	10.5 µM	–	Not active; Only Slight Activity Was Observed	12.8 µM	Not active; Only Slight Activity Was Observed	–	–
